In patent US9765075B2, “Substituted bridged urea analogs as sirtuin modulators” (GLAXOSMITHKLINE LLC, priority 2013, dated 2017):

Target: T1, SIRT1 (Homo sapiens, UniProt Q96EB6)
T1 sequence (Q96EB6 1-747): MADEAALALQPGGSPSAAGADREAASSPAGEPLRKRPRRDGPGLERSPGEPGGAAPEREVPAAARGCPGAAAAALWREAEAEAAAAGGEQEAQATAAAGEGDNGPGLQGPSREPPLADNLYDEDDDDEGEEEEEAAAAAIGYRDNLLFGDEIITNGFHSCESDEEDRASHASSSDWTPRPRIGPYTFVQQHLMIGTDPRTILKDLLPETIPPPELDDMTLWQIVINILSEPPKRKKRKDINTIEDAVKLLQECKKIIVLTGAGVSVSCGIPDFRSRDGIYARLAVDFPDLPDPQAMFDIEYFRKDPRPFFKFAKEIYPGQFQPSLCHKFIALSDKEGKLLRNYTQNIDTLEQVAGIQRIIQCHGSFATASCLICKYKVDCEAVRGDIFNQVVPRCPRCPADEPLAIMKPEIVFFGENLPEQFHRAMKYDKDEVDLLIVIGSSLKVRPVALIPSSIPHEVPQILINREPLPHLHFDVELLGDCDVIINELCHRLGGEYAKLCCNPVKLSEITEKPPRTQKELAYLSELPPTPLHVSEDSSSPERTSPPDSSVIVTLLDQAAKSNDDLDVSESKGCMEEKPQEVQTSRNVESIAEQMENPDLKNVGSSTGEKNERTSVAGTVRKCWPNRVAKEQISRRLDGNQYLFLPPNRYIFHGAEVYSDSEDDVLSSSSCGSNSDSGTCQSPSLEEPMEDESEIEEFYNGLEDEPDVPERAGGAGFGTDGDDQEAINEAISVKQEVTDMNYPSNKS
Assay: Trp mass spectrometry assay (SIRT1 activation)
Type: biochemical
Conditions: Trp mass spectrometry assay; for Emax: percent maximum fold activation of SIRT1, read-out: Tryp % Fold Act; for Tryp AVG EC1.5 (μM): EC1.5 = concentration of test compound that results in 150% activation of SIRT1
From the text: Mass spectrometry based assays were used to identify modulators of SIRT1 activity. […] The peptide was labeled with the fluorophore 5TMR (excitation 540 nm/emission 580 nm) at the C-terminus. The sequence of the peptide substrate was based on p53 with several modifications. In addition, the methionine residue naturally present in the sequence was replaced with the norleucine because the methionine may be susceptible to oxidation during synthesis and purification. The Trp based assay utilized a peptide having an amino acid residues as follows: Ac-R-H-K-K(Ac)-W-NH2 (SEQ ID NO: 2).
The Trp mass spectrometry assay was conducted as follows. 0.5 μM peptide substrate and 120 μM βNAD^+ were incubated with 10 nM SIRT1 for 25 minutes at 25° C. in a reaction buffer (50 mM HEPES pH 7.5, […] NaCl, 1 mM DTT, 0.05% BSA). The SIRT1 protein was obtained by cloning the SirT1 gene into a T7-promoter containing vector, which was then expressed in BL21(DE3) bacterial cells and purified as described in further detail below. Test compound was added at varying concentrations to this reaction mixture and the resulting reactions were monitored. After the 25 minute incubation with SIRT1, 10 μL of 10% formic acid was added to stop the reaction. The resulting reactions were sealed and frozen for later mass spec analysis. The relative SIRT1 activity was then determined by measuring the amount of 0-acetyl-ADP-ribose (OAADPR) formed (or, alternatively, the amount of deacetylated Trp peptide generated) by the NAD-dependent sirtuin deacetylation reaction in the presence of varying concentrations of the test compound versus control reactions lacking the test compound. The degree to which the test agent activated deacetylation by SIRT1 was expressed as EC1.5 (i.e., the concentration of compound required to increase SIRT1 activity by 50% over the control lacking test compound), and Percent Maximum Activation (i.e., the maximum activity relative to control (100%) obtained for the test compound).
A control for activation of sirtuin activity was conducted using 10 nM of sirtuin protein, with 1 μL of DMSO in place of compound, to determine the amount of deacetylation of the substrate at a given time point within the linear range of the assay. This time point was the same as that used for test compounds and, within the linear range, the endpoint represents a change in velocity.
For the above assay, SIRT1 protein was expressed and purified as follows. The SirT1 gene was cloned into a T7-promoter containing vector and transformed into BL21(DE3). The protein was expressed by induction with 1 mM IPTG as an N-terminal His-tag fusion protein at 18° C. overnight and harvested at 30,000×g. Cells were lysed with lysozyme in lysis buffer (50 mM Tris-HCl, 2 mM Tris[2-carboxyethyl] phosphine (TCEP), 10 μM ZnCl2, 200 mM NaCl) and further treated with sonication for 10 min for complete lysis. The protein was purified over a Ni-NTA column (Amersham) and fractions containing pure protein were pooled, concentrated and run over a sizing column (Sephadex S200 26/60 global). The peak containing soluble protein was collected and run on an Ion-exchange column (MonoQ). Gradient elution (200 mM-500 mM NaCl) yielded pure protein. This protein was concentrated and dialyzed against dialysis buffer (20 mM Iris-HCl, 2 mM TCEP) overnight. The protein was aliquoted and frozen at −80° C. until further use.

| SMILES | Emax | Tryp AVG EC1.5 (μM) |
| --- | --- | --- |
| Cc1nc(NC(=O)N2c3nc(-c4cccc(C(F)(F)F)c4)ccc3N3CC[C@H]2C3)sc1C [Example 48] | ≥ 150% |  |
| Cn1cc(NC(=O)N2c3nc(-c4cccc(C(F)(F)F)c4)ccc3N3CC[C@H]2C3)cn1 [Example 49] | ≥ 150% |  |
| COc1nccc(NC(=O)N2c3nc(-c4cccc(Cl)c4)ccc3N3CC[C@H]2C3)n1 [Example 50] | ≥ 150% |  |
| CC(C)NC(=O)N1c2nc(-c3cccc(C(F)(F)F)c3)ccc2N2CC[C@H]1C2 [Example 51] | ≥ 150% |  |
| CCN(CC)C(=O)N1c2nc(-c3cccc(C(F)(F)F)c3)ccc2N2CC[C@H]1C2 [Example 52] | < 150% | C (EC1.5>25 μM) |
| O=C(Nc1cc(OCC(O)CO)ccn1)N1c2nc(-c3cccc(C(F)(F)F)c3)ccc2N2CC[C@H]1C2 (stereo partly drawn) [Example 53] | ≥ 150% |  |
| O=C(Nc1ccnc(OCC(O)CO)n1)N1c2nc(-c3cccc(Cl)c3)ccc2N2CC[C@H]1C2 (stereo partly drawn) [Example 54] | ≥ 150% |  |
| Cc1cc(OCC(O)CO)nc(NC(=O)N2c3nc(-c4cccc(Cl)c4)ccc3N3CC[C@H]2C3)n1 (stereo partly drawn) [Example 55] | ≥ 150% |  |
| Cc1csc(NC(=O)N2c3nc(-c4cccc(C(F)(F)F)c4)ccc3N3CC[C@H]2C3)n1 [Example 56] | ≥ 150% |  |
| O=C(Nc1ccccn1)N1c2nc(-c3cccc(F)c3)ccc2N2CC[C@H]1C2 [Example 57] | ≥ 150% |  |
| O=C(Nc1cccnn1)N1c2nc(-c3cccc(F)c3)ccc2N2CC[C@H]1C2 [Example 58] | ≥ 150% |  |
| O=C(Nc1ccc(F)cn1)N1c2nc(-c3cccc(F)c3)ccc2N2CC[C@H]1C2 [Example 59] | ≥ 150% |  |
| COc1nccc(NC(=O)N2c3nc(-c4cccc(F)c4)ccc3N3CC[C@H]2C3)n1 [Example 60] | ≥ 150% |  |
| Cc1cc(NC(=O)N2c3nc(-c4cccc(C(F)(F)F)c4)ccc3N3CC[C@H]2C3)ccn1 [Example 61] | ≥ 150% |  |
| Cc1cnccc1NC(=O)N1c2nc(-c3cccc(F)c3)ccc2N2CC[C@H]1C2 [Example 62] | ≥ 150% |  |
| O=C(Nc1cncc(OCC(O)CO)n1)N1c2nc(-c3cccc(Cl)c3)ccc2N2CC[C@H]1C2 (stereo partly drawn) [Example 63] | ≥ 150% |  |
| Cc1cc(OCC(O)CO)nc(NC(=O)N2c3nc(-c4cccc(F)c4)ccc3N3CC[C@H]2C3)n1 (stereo partly drawn) [Example 64] | ≥ 150% |  |
| O=C(Nc1ccnc(OCC(O)CO)n1)N1c2nc(-c3cccc(F)c3)ccc2N2CC[C@H]1C2 (stereo partly drawn) [Example 65] | ≥ 150% |  |
| O=C(Nc1ccnc(OC[C@H](O)CO)c1)N1c2nc(-c3cccc(Cl)c3)ccc2N2CC[C@H]1C2 [Example 66] | ≥ 150% |  |
| CC(C)c1cccc(C(C)C)c1NC(=O)N1c2nc(-c3cccc(C(F)(F)F)c3)ccc2N2CC[C@H]1C2 [Example 67] | < 150% |  |
| CCc1cccc(C)c1NC(=O)N1c2nc(-c3cccc(C(F)(F)F)c3)ccc2N2CC[C@H]1C2 [Example 69] | < 150% |  |
| CC(C)(C)c1ccccc1NC(=O)N1c2nc(-c3cccc(C(F)(F)F)c3)ccc2N2CC[C@H]1C2 [Example 70] | < 150% |  |
| CCc1cccc(CC)c1NC(=O)N1c2nc(-c3cccc(C(F)(F)F)c3)ccc2N2CC[C@H]1C2 [Example 71] | < 150% |  |

| SMILES | Emax | Tryp AVG EC1.5 (μM) |
| --- | --- | --- |
| CC(C)(C)c1csc(NC(=O)N2c3nc(-c4cccc(C(F)(F)F)c4)ccc3N3CC[C@H]2C3)n1 [Example 72] | ≥ 150% |  |
| O=C(Nc1ccnc(OC[C@H](O)CO)c1)N1c2nc(-c3cccc(F)c3)ccc2N2CC[C@H]1C2 [Example 73] | ≥ 150% |  |
| O=C(Nc1ccncc1F)N1c2nc(-c3cccc(F)c3)ccc2N2CC[C@H]1C2 [Example 74] | ≥ 150% |  |
| CC(=O)c1sc(NC(=O)N2c3nc(-c4cccc(C(F)(F)F)c4)ccc3N3CC[C@H]2C3)nc1C [Example 75] | ≥ 150% | A (EC1.5<1 μM) |
| COc1ccc(C)nc1NC(=O)N1c2nc(-c3cccc(C(F)(F)F)c3)ccc2N2CC[C@H]1C2 [Example 77] | ≥ 150% | B (EC1.5 1-25 μM) |
| CC(=O)c1cc(F)c(NC(=O)N2c3nc(-c4cccc(C(F)(F)F)c4)ccc3N3CC[C@H]2C3)c(F)c1 [Example 78] | ≥ 150% |  |
| Cc1cnc(NC(=O)N2c3nc(-c4cccc(C(F)(F)F)c4)ccc3N3CC[C@H]2C3)nc1-c1ccccc1 [Example 79] | ≥ 150% |  |
| Cc1csc2nc(NC(=O)N3c4nc(-c5cccc(C(F)(F)F)c5)ccc4N4CC[C@H]3C4)nn12 [Example 80] | ≥ 150% |  |
| O=C(Nc1cc[nH]c(=O)n1)N1c2nc(-c3cccc(C(F)(F)F)c3)ccc2N2CC[C@H]1C2 [Example 82] | ≥ 150% |  |
| O=C(Nc1cccc2nccnc12)N1c2nc(-c3cccc(C(F)(F)F)c3)ccc2N2CC[C@H]1C2 [Example 83] | ≥ 150% | A (EC1.5<1 μM) |
| Cc1ccc2ncccc2c1NC(=O)N1c2nc(-c3cccc(C(F)(F)F)c3)ccc2N2CC[C@H]1C2 [Example 84] | < 150% |  |
| O=C(Nc1ccccn1)N1c2nc(-c3cccc(C(F)(F)F)c3)ccc2N2CC(O)C1C2 (stereo not drawn) [Example 85] | ≥ 150% |  |
| Cc1cc2c(NC(=O)N3c4nc(-c5cccc(C(F)(F)F)c5)ccc4N4CC[C@H]3C4)cccc2nn1 [Example 86] | ≥ 150% |  |
| Cn1ncc2cc(NC(=O)N3c4nc(-c5cccc(C(F)(F)F)c5)ccc4N4CC[C@H]3C4)ccc21 [Example 87] | ≥ 150% | A (EC1.5<1 μM) |
| O=C(Nc1nc2ccccc2s1)N1c2nc(-c3cccc(C(F)(F)F)c3)ccc2N2CC[C@H]1C2 [Example 90] | ≥ 150% | A (EC1.5<1 μM) |
| Cc1nc(NC(=O)N2c3nc(-c4cccc(C(F)(F)F)c4)ccc3N3CC[C@H]2C3)nc2c1CCC2 [Example 91] | ≥ 150% | B (EC1.5 1-25 μM) |
| Cc1nn(C)cc1NC(=O)N1c2nc(-c3cccc(C(F)(F)F)c3)ccc2N2CC[C@H]1C2 [Example 92] | ≥ 150% | B (EC1.5 1-25 μM) |
| O=C1OCc2ccc(NC(=O)N3c4nc(-c5cccc(C(F)(F)F)c5)ccc4N4CC[C@H]3C4)cc21 [Example 93] | ≥ 150% | A (EC1.5<1 μM) |
| Cc1cc(C(F)(F)F)nc(NC(=O)N2c3nc(-c4cccc(C(F)(F)F)c4)ccc3N3CC[C@H]2C3)n1 [Example 94] | ≥ 150% | B (EC1.5 1-25 μM) |
| O=C(Nc1ccc2c(c1)OCCCO2)N1c2nc(-c3cccc(C(F)(F)F)c3)ccc2N2CC[C@H]1C2 [Example 95] | ≥ 150% | A (EC1.5<1 μM) |
| O=C(Nc1ccncc1Cl)N1c2nc(-c3cccc(C(F)(F)F)c3)ccc2N2CC[C@H]1C2 [Example 96] | ≥ 150% | B (EC1.5 1-25 μM) |
| O=C(Nc1ccncn1)N1c2nc(C3CCCC(C(F)(F)F)C3)ccc2N2CC[C@H]1C2 (stereo partly drawn) [Example 98] | ≥ 150% | B (EC1.5 1-25 μM) |
| O=C(Nc1cccnc1)N1c2nc(C3CCCC(C(F)(F)F)C3)ccc2N2CC[C@H]1C2 (stereo partly drawn) [Example 99] | ≥ 150% | A (EC1.5<1 μM) |
